# Measured values published in ChEMBL document CHEMBL4020755, “Design, synthesis, and biological evaluation of deuterated apalutamide with improved pharmacokinetic profiles” (Bioorg Med Chem Lett, 2017).
# Assay: Cmax in Balb/c mouse at 10 mg/kg administered orally measured up to 24 hrs by LC-MS/MS analysis
# Type: ADME, organism-based
# Set-up: dose 10 mg/kg, route oral
# Conditions: in vivo, po
row,Structure (SMILES),Cmax [ng/mL]
1,[2H]C1([2H])CC([2H])([2H])C12C(=O)N(c1cnc(C#N)c(C(F)(F)F)c1)C(=S)N2c1ccc(C(=O)NC)c(F)c1,2170
2,[2H]c1cc(C(=O)NC)c(F)c([2H])c1N1C(=S)N(c2cnc(C#N)c(C(F)(F)F)c2)C(=O)C12CCC2,3480
3,[2H]C([2H])([2H])NC(=O)c1ccc(N2C(=S)N(c3cnc(C#N)c(C(F)(F)F)c3)C(=O)C23CCC3)cc1F,4480

# Other lines, results leading:
row,Cmax [ng/mL],Structure (SMILES)
1,3940,[2H]c1cc(C(=O)NC([2H])([2H])[2H])c(F)c([2H])c1N1C(=S)N(c2cnc(C#N)c(C(F)(F)F)c2)C(=O)C12CCC2
2,3320,CNC(=O)c1ccc(N2C(=S)N(c3cnc(C#N)c(C(F)(F)F)c3)C(=O)C23CCC3)cc1F [APALUTAMIDE]

# Assay: Half life in Balb/c mouse at 10 mg/kg administered orally measured up to 24 hrs by LC-MS/MS analysis
# Type: ADME, organism-based
# Conditions: in vivo, po
row,Structure (SMILES),half-life [h]
1,[2H]C1([2H])CC([2H])([2H])C12C(=O)N(c1cnc(C#N)c(C(F)(F)F)c1)C(=S)N2c1ccc(C(=O)NC)c(F)c1,32.3
2,[2H]c1cc(C(=O)NC)c(F)c([2H])c1N1C(=S)N(c2cnc(C#N)c(C(F)(F)F)c2)C(=O)C12CCC2,6.6
3,[2H]C([2H])([2H])NC(=O)c1ccc(N2C(=S)N(c3cnc(C#N)c(C(F)(F)F)c3)C(=O)C23CCC3)cc1F,32.3

# Now from value to compound:
row,half-life [h],Structure (SMILES)
1,54.9,[2H]c1cc(C(=O)NC([2H])([2H])[2H])c(F)c([2H])c1N1C(=S)N(c2cnc(C#N)c(C(F)(F)F)c2)C(=O)C12CCC2
2,5.9,CNC(=O)c1ccc(N2C(=S)N(c3cnc(C#N)c(C(F)(F)F)c3)C(=O)C23CCC3)cc1F [APALUTAMIDE]

# Assay: Mean residence time in Sprague-Dawley rat 10 mg/kg administered orally measured up to 24 hrs by LC-MS/MS analysis
# Type: ADME, organism-based
# Conditions: in vivo, po
row,MRT [h],Structure (SMILES)
1,13,[2H]C([2H])([2H])NC(=O)c1ccc(N2C(=S)N(c3cnc(C#N)c(C(F)(F)F)c3)C(=O)C23CCC3)cc1F
2,10.7,CNC(=O)c1ccc(N2C(=S)N(c3cnc(C#N)c(C(F)(F)F)c3)C(=O)C23CCC3)cc1F [APALUTAMIDE]

# Assay: AUC (0 to infinity) in Sprague-Dawley rat at 10 mg/kg administered orally measured up to 24 hrs by LC-MS/MS analysis
# Type: ADME, organism-based
# Set-up: dose 10 mg/kg, route oral, time infinity
# Conditions: in vivo, po
row,AUC(0-inf) [ng·h/mL],Structure (SMILES)
1,28700,[2H]C([2H])([2H])NC(=O)c1ccc(N2C(=S)N(c3cnc(C#N)c(C(F)(F)F)c3)C(=O)C23CCC3)cc1F
2,14800,CNC(=O)c1ccc(N2C(=S)N(c3cnc(C#N)c(C(F)(F)F)c3)C(=O)C23CCC3)cc1F [APALUTAMIDE]

# Assay: Tmax in Balb/c mouse at 10 mg/kg administered orally measured up to 24 hrs by LC-MS/MS analysis
# Type: ADME, organism-based
# Conditions: in vivo, po
row,Structure (SMILES),Tmax [h]
1,[2H]C1([2H])CC([2H])([2H])C12C(=O)N(c1cnc(C#N)c(C(F)(F)F)c1)C(=S)N2c1ccc(C(=O)NC)c(F)c1,6
2,[2H]c1cc(C(=O)NC)c(F)c([2H])c1N1C(=S)N(c2cnc(C#N)c(C(F)(F)F)c2)C(=O)C12CCC2,6
3,[2H]C([2H])([2H])NC(=O)c1ccc(N2C(=S)N(c3cnc(C#N)c(C(F)(F)F)c3)C(=O)C23CCC3)cc1F,4

# Now from value to compound:
row,Tmax [h],Structure (SMILES)
1,4,[2H]c1cc(C(=O)NC([2H])([2H])[2H])c(F)c([2H])c1N1C(=S)N(c2cnc(C#N)c(C(F)(F)F)c2)C(=O)C12CCC2
2,6,CNC(=O)c1ccc(N2C(=S)N(c3cnc(C#N)c(C(F)(F)F)c3)C(=O)C23CCC3)cc1F [APALUTAMIDE]

# Assay: AUC (0 to 24 hrs) in Balb/c mouse at 10 mg/kg administered orally measured up to 24 hrs by LC-MS/MS analysis
# Type: ADME, organism-based
# Set-up: dose 10 mg/kg, time < 24 hr, route oral
# Conditions: in vivo, po
row,Structure (SMILES),AUC(0-t) at 24 h [ng·h/mL]
1,[2H]C1([2H])CC([2H])([2H])C12C(=O)N(c1cnc(C#N)c(C(F)(F)F)c1)C(=S)N2c1ccc(C(=O)NC)c(F)c1,41100
2,[2H]c1cc(C(=O)NC)c(F)c([2H])c1N1C(=S)N(c2cnc(C#N)c(C(F)(F)F)c2)C(=O)C12CCC2,63800
3,[2H]C([2H])([2H])NC(=O)c1ccc(N2C(=S)N(c3cnc(C#N)c(C(F)(F)F)c3)C(=O)C23CCC3)cc1F,87800

# Next, values leading:
row,AUC(0-t) at 24 h [ng·h/mL],Structure (SMILES)
1,80600,[2H]c1cc(C(=O)NC([2H])([2H])[2H])c(F)c([2H])c1N1C(=S)N(c2cnc(C#N)c(C(F)(F)F)c2)C(=O)C12CCC2
2,61600,CNC(=O)c1ccc(N2C(=S)N(c3cnc(C#N)c(C(F)(F)F)c3)C(=O)C23CCC3)cc1F [APALUTAMIDE]

# Assay: Cmax in Sprague-Dawley rat at 10 mg/kg administered orally measured up to 24 hrs by LC-MS/MS analysis
# Type: ADME, organism-based
# Set-up: dose 10 mg/kg, route oral
# Conditions: in vivo, po
row,Cmax [ng/mL],Structure (SMILES)
1,1700,[2H]C([2H])([2H])NC(=O)c1ccc(N2C(=S)N(c3cnc(C#N)c(C(F)(F)F)c3)C(=O)C23CCC3)cc1F
2,946,CNC(=O)c1ccc(N2C(=S)N(c3cnc(C#N)c(C(F)(F)F)c3)C(=O)C23CCC3)cc1F [APALUTAMIDE]

# Assay: Half life in Sprague-Dawley rat 10 mg/kg administered orally measured up to 24 hrs by LC-MS/MS analysis
# Type: ADME, organism-based
# Conditions: in vivo, po
row,half-life [h],Structure (SMILES)
1,8.9,[2H]C([2H])([2H])NC(=O)c1ccc(N2C(=S)N(c3cnc(C#N)c(C(F)(F)F)c3)C(=O)C23CCC3)cc1F
2,7.4,CNC(=O)c1ccc(N2C(=S)N(c3cnc(C#N)c(C(F)(F)F)c3)C(=O)C23CCC3)cc1F [APALUTAMIDE]
